These are literature values, as cited in patent US20160206641A1, “RAPIDLY-[…] FILM FORMULATION OF WATER SOLUBLE […] GLYCOSIDE FOR THE TREATMENT OF […] DISEASE” (LUMINUS BIOSCIENCES INC., priority 2013, published 2016).

Molecules are shown by their SMILES. Values after ≈ are worked out from the molar mass of the structure shown.

For the molecule `C[C@@H]1O[C@@H](O[C@H]2C[C@@H](O)[C@]3(CO)[C@H]4[C@H](O)C[C@]5(C)[C@@H](C6=CC(=O)OC6)CC[C@]5(O)[C@@H]4CC[C@]3(O)C2)[C@H](O)[C@H](O)[C@H]1O` [ouabain, 1β,3β,5β,11α,14,19-Hexahydroxycard-20(22)-enolide 3-(6-deoxy-α-L-mannopyranoside)], the “solubility in cold water” value (cold water) is 10000 µg/mL (≈ 17.1 mM). Further, the “solubility in hot water” value (hot water) is “more than 50 mg/ml”.
